In ChEMBL document CHEMBL4513161, “CO-ADD screening of MMV (CH) - Pandemic Response Box” (2021):
In brackets after ≈: the same amount, converted by molar mass.

Key:
[1] = system: Pseudomonas aeruginosa; experiment: microbe, parasite or virus in culture; settings: ATCC 27853, 18 h, ASSAY_TEST Inhibition of Bacterial Growth, detection method Absorption (OD600), MEDIA CAMHB, plate type 384well, NBS, CORNING #3640
Description: Antibacterial activity against Pseudomonas aeruginosa ATCC 27853 (CO-ADD:GN_042); MIC in CAMBH media using NBS plates, by OD(600)

[2] = system: Acinetobacter baumannii; experiment: microbe, parasite or virus in culture; settings: ATCC 19606, 18 h, ASSAY_TEST Inhibition of Bacterial Growth, detection method Absorption (OD600), MEDIA CAMHB, plate type 384well, NBS, CORNING #3640
Description: Antibacterial activity against Acinetobacter baumannii ATCC 19606 (CO-ADD:GN_034); MIC in CAMBH media using NBS plates, by OD600

[3] = system: Candida albicans; experiment: microbe, parasite or virus in culture; settings: ATCC 90028, ASSAY_TEST Inhibition of Fungal Growth, detection method Absorption (OD530), plate type 384well, NBS, CORNING #3640
Description: Antifungal activity against Candida albicans ATCC 90028 (CO-ADD:FG_001); MIC in YNB media using NBS plates, by OD630

[4] = system: Staphylococcus aureus; experiment: microbe, parasite or virus in culture; settings: ATCC 43300, 18 h, ASSAY_TEST Inhibition of Bacterial Growth, detection method Absorption (OD600), MEDIA CAMHB, plate type 384well, NBS, CORNING #3640
Description: Antibacterial activity against Staphylococcus aureus MRSA ATCC 43300 (CO-ADD:GP_020); MIC in CAMBH media, using NBS plates, by OD(600)

[5] = system: HEK293; experiment: cells; type: functional, Homo sapiens, ATCC CRL1573; settings: Homo sapiens, ATCC CRL1573, HEK293; ASSAY_TEST Inhibition of Cell Viability; detection method Resazurin; Fluorescence (ex560/em590); MEDIA DMEM with 10% FBS; plate type 384well; TC; CORNING #3712; time 18 hr; read-out: CC50
[6] = system: Pseudomonas aeruginosa; experiment: Antibacterial activity against Pseudomonas aeruginosa PAO397 [PAO1 d(mexAB-oprM) d(mexCD-oprJ) d(mexEF-oprN) d(mexJKL) d(mexXY) d(opmH)] (CO-ADD:GN_211); MIC in CAMBH media using NBS plates, by OD(600); type: functional; settings: ASSAY_TEST Inhibition of Bacterial Growth, detection method Absorption (OD600), MEDIA CAMHB, plate type 384well, CORNING #3640, time 18 hr
[7] = system: Cryptococcus neoformans
Description: Antifungal activity against Cryptococcus neoformans H99 ATCC 208821 (CO-ADD:FG_002); MIC in YNB media using NBS plates, by Resazurin OD(600-570)

[8] = system: Klebsiella pneumoniae; experiment: microbe, parasite or virus in culture; settings: ATCC 700603, 18 h, ASSAY_TEST Inhibition of Bacterial Growth, detection method Absorption (OD600), MEDIA CAMHB, plate type 384well, NBS, CORNING #3640
Description: Antibacterial activity against Klebsiella pneumoniae MDR ATCC 70063 (CO-ADD:GN_003); MIC in CAMBH media using NBS plates, by OD(600)

[9] = system: Escherichia coli; experiment: microbe, parasite or virus in culture; settings: ATCC 25922, 18 h, ASSAY_TEST Inhibition of Bacterial Growth, detection method Absorption (OD600), MEDIA CAMHB, plate type 384well, NBS, CORNING #3640
Description: Antibacterial activity against Escherichia coli ATCC 25922 (CO-ADD:GN_001); MIC in CAMBH media using NBS plates, by OD(600)

MIC [1] [µM] | MIC [2] [µM] | MIC [3] [µM] | MIC [4] [µM] | MIC [6] [µM] | MIC [7] [µM] | MIC [8] [µM] | MIC [9] [µM] | SMILES | CC50 [5] [µM]
> 20 | > 20 | > 20 | > 20 | > 20 | > 20 | > 20 | > 20 | O=C(/C=C/n1cnc(-c2cc(C(F)(F)F)cc(C(F)(F)F)c2)n1)NNc1cnccn1 | > 20
> 20 | > 20 | > 20 | > 20 | > 20 | > 20 | > 20 | > 20 | O=C(Nc1ccc(-c2ccccc2)cc1)C1=C(O)C(Cc2ccccc2)OC1=O (stereo unspecified) | > 20
> 20 | > 20 | > 20 | > 20 | > 20 | > 20 | > 20 | > 20 | O=C(Nc1ccccc1C(=O)O)c1cccc(Oc2ccccc2)c1 | > 20
> 20 | > 20 | > 20 | > 20 | > 20 | > 20 | > 20 | > 20 | COc1ccc(C(C)(C)C)cc1NC(=O)C(=O)c1ccc(OCCN2CCOCC2)c2ccccc12 | > 20
> 20 | > 20 | > 20 | > 20 | > 20 | > 20 | > 20 | > 20 | COc1ccccc1NC(=O)c1ccccc1Sc1ccc([N+](=O)[O-])cc1 | > 20
> 20 | > 20 | > 20 | > 20 | > 20 | > 20 | > 20 | > 20 | O=C(NCc1ccc2c3c(cccc13)C(=O)N2)c1cccs1 | > 20
> 20 | > 20 | > 20 | > 20 | > 20 | > 20 | > 20 | > 20 | NC(=O)c1[nH]c2ccc(S(N)(=O)=O)cc2c1-c1ccccc1 | > 20
> 20 | > 20 | > 20 | > 20 | > 20 | > 20 | > 20 | > 20 | CCc1ccccc1OCCN1CCCCCC1 | > 20
> 20 | > 20 | > 20 | > 20 | > 20 | > 20 | > 20 | > 20 | Fc1ccc(-c2nc(-c3c[nH]c4ccc(Br)cc34)[nH]c2-c2ccc(F)cc2)cc1 | 9.15
> 20 | > 20 | > 20 | > 20 | > 20 | > 20 | > 20 | > 20 | O=C(c1ccc(F)cc1)N1CCN2C(=O)c3ccccc3C12c1ccccc1 (stereo unspecified) | > 20
> 20 | > 20 | > 20 | > 20 | > 20 | > 20 | > 20 | > 20 | Nc1nc2c(ncn2COC(CO)CO)c(=O)[nH]1 [GANCICLOVIR] | > 20
> 20 | > 20 | > 20 | > 20 | > 20 | > 20 | > 20 | > 20 | CCCCc1ccc(-c2cc(C(=O)O)cc(-c3ccc(Cl)cc3)n2)cc1 | > 20
> 20 | > 20 | > 20 | > 20 | > 20 | > 20 | > 20 | > 20 | O=C(c1ccccc1)N1CCN(c2ccccc2NC(=O)C(Cl)(Cl)Cl)CC1 | > 20
> 20 | > 20 | > 20 | 10 (≈ 3.11 µg/mL) | > 20 | > 20 | > 20 | > 20 | CCc1cc(Cc2cnc(N)nc2N)cc2c1N(C)CCC2C (stereo unspecified) | > 20
> 20 | > 20 | > 20 | > 20 | > 20 | > 20 | > 20 | > 20 | CC(C)(C)c1ccc(C(Cn2cccc(C(F)(F)F)c2=O)NC2Cc3ccccc3C2)cc1 (stereo unspecified) | > 20
> 20 | > 20 | > 20 | > 20 | > 20 | > 20 | > 20 | > 20 | Cc1ccc(N2CCC(CCOc3ccc(S(C)(=O)=O)cc3)CC2)nn1 | > 20
> 20 | > 20 | > 20 | > 20 | > 20 | > 20 | > 20 | > 20 | CCc1nc2ccccn2c1C(=O)NCc1ccccc1 | > 20
> 20 | > 20 | > 20 | 20 (≈ 7.31 µg/mL) | > 20 | > 20 | > 20 | > 20 | CCC(C)NCC(O)Cn1c2ccc(Cl)cc2c2cc(Cl)ccc21 (stereo unspecified) | 6.84
> 20 | > 20 | > 20 | > 20 | > 20 | > 20 | > 20 | > 20 | NCC(=O)Nc1ccc(-n2nc(C(F)(F)F)cc2-c2ccc3c(ccc4ccccc43)c2)cc1 [AR-12] | 6.68
> 20 | > 20 | > 20 | > 20 | > 20 | > 20 | > 20 | > 20 | CC(C)c1cc2c(cc1S(=O)(=O)O)[C@@]1(C)CCC[C@@](C)(C(=O)O)[C@@H]1CC2 [ECABET] | > 20
> 20 | > 20 | > 20 | > 20 | > 20 | > 20 | > 20 | > 20 | O=C(O)CCNC(=O)c1ccccc1 [BETAMIPRON] | > 20
> 20 | > 20 | > 20 | > 20 | > 20 | > 20 | > 20 | > 20 | CCc1cc(Nc2cc(=O)n(CCN3CCN(C(=O)c4ccccc4)CC3)c(=O)[nH]2)ccc1C | > 20
> 20 | > 20 | > 20 | > 20 | > 20 | > 20 | > 20 | > 20 | CN(C)CCCNC(=O)c1ccc(-c2cc(O)c3ncccc3c2)cc1 | 16.6
> 20 | > 20 | > 20 | > 20 | > 20 | > 20 | > 20 | > 20 | Fc1ccc(-n2cc(Cn3c(-c4cccc(F)c4)nc4ccccc43)nn2)cc1 | > 20

SMILES | MIC [1] [µM] | MIC [2] [µM] | MIC [3] [µM] | MIC [4] [µM] | MIC [6] [µM] | MIC [7] [µM] | MIC [8] [µM] | MIC [9] [µM] | CC50 [5] [µM]
Nc1c(C(=O)NCc2ccco2)c2nc3ccccc3nc2n1CCN1CCCCC1 | > 20 | > 20 | > 20 | > 20 | > 20 | > 20 | > 20 | > 20 | > 20
O=C(NC12CC3CC(CC(C3)C1)C2)c1cc2ccccc2[nH]1 | > 20 | > 20 | > 20 | > 20 | > 20 | > 20 | > 20 | > 20 | > 20
COc1ccccc1CN[C@H]1C2CCN(CC2)[C@H]1C(c1ccccc1)c1ccccc1 [CP-96345] | > 20 | > 20 | > 20 | > 20 | > 20 | > 20 | > 20 | > 20 | > 20
COc1cc(C(C)(C)CCCC(C)C)cc(OC)c1OC | > 20 | > 20 | > 20 | > 20 | > 20 | > 20 | > 20 | > 20 | > 20
CCCCCCCc1[nH]c2ccccc2c(=O)c1O | > 20 | > 20 | > 20 | > 20 | > 20 | > 20 | > 20 | > 20 | > 20
